# Tests used:
# [1] = Cytotoxicity against human peripheral blood lymphocytes assessed as assessed as CD3+ T cells population at 5 uM after 5 days by flow cytometry analysis (reference value: 73.8%); type: cell-based; details: lymphocyte, 120 h
# [2] = Cytotoxicity against human peripheral blood lymphocytes assessed as assessed as CD3+ T cells population at 10 uM after 5 days by flow cytometry analysis (reference value: 73.8%); type: cell-based; details: lymphocyte, 120 h
# [3] = molecular target: Cytochrome P450 2D6 (Homo sapiens, UniProt P10635); experiment: Inhibition of CYP2D6 (unknown origin) using AMMC by fluorescence assay; type: ADME
# [4] = Cytotoxicity against human peripheral blood lymphocytes assessed as assessed as CD4+/CD8+ […] ratio at 10 uM after 5 days by flow cytometry analysis (reference value: 2.7 %); type: cell-based; details: lymphocyte, 120 h
# [5] = Cytotoxicity against human peripheral blood lymphocytes assessed as assessed as CD3+ T cells population at 30 uM after 5 days by flow cytometry analysis (reference value: 73.8%); type: cell-based; details: lymphocyte, 120 h
# [6] = Cytotoxicity against human peripheral blood lymphocytes assessed as assessed as CD4+/CD8+ […] ratio at 0.1 uM after 5 days by flow cytometry analysis (reference value: 2.7%); type: cell-based; details: lymphocyte, 120 h
# [7] = Cytotoxicity against human peripheral blood lymphocytes assessed as assessed as CD3+ T cells population at 0.1 uM after 5 days by flow cytometry analysis (reference value: 73.8%); type: cell-based; details: lymphocyte, 120 h
# [8] = Cytotoxicity against human peripheral blood lymphocytes assessed as assessed as CD4+/CD8+ […] ratio at 1 uM after 5 days by flow cytometry analysis (reference value: 2.7%); type: cell-based; details: lymphocyte, 120 h
# [9] = test system: MCF7; experiment: Antiproliferative activity against human MCF7 cells assessed as reduction in cell growth after 24 hrs by MTS assay; type: functional, cell-based; details: MCF7, 24 h
# [10] = Cytotoxicity against human peripheral blood lymphocytes assessed as assessed as CD3+ T cells population at 50 uM after 5 days by flow cytometry analysis (reference value: 73.8%); type: cell-based; details: lymphocyte, 120 h
# [11] = Plasma concentration in Sprague-Dawley rat at 2.3 mg/kg, sc measured at 12 hrs by LC/MS/MS analysis; type: ADME, organism-based; set-up: dose 2.3 mg/kg, route subcutaneous
# [12] = test system: T47D; experiment: Antiproliferative activity against human T47D cells assessed as reduction in cell growth after 24 hrs by MTS assay; type: functional, cell-based
# [13] = test system: LNCaP; experiment: Antiproliferative activity against human LNCAP cells assessed as reduction in cell growth after 24 hrs by MTS assay; type: functional, cell-based
# [14] = Cytotoxicity against human peripheral blood lymphocytes assessed as assessed as CD3+/CD8 T cells population at 0.1 uM after 5 days by flow cytometry analysis (reference value: 15.2 %); type: cell-based; details: lymphocyte, 120 h
# [15] = Cytotoxicity against human peripheral blood lymphocytes assessed as assessed as CD19+ B cells population at 10 uM after 5 days by flow cytometry analysis (reference value: 2%); type: cell-based; details: lymphocyte, 120 h
# [16] = Cytotoxicity against human peripheral blood lymphocytes assessed as assessed as CD3+/CD8 T cells population at 10 uM after 5 days by flow cytometry analysis (reference value: 15.2 %); type: cell-based; details: lymphocyte, 120 h
# [17] = Cytotoxicity against human peripheral blood lymphocytes assessed as assessed as CD3+/CD4+ T cells population at 5 uM after 5 days by flow cytometry analysis (reference value: 41.4%); type: cell-based; details: lymphocyte, 120 h
# [18] = Cytotoxicity against human peripheral blood lymphocytes assessed as assessed as CD3+/CD8 T cells population at 1 uM after 5 days by flow cytometry analysis (reference value: 15.2%); type: cell-based; details: lymphocyte, 120 h
# [19] = Cytotoxicity against mouse WEHI13 cells assessed as cell proliferation after 48 hrs by MTT assay; type: cell-based; details: WEHI13, 48 h
# [20] = molecular target: Cytochrome P450 3A4 (Homo sapiens, UniProt P08684); experiment: Inhibition of CYP3A4 (unknown origin) using AMMC by fluorescence assay; type: ADME
# [21] = Cytotoxicity against human peripheral blood lymphocytes assessed as assessed as CD3+/CD8 T cells population at 50 uM after 5 days by flow cytometry analysis (reference value: 15.2 %); type: cell-based; details: lymphocyte, 120 h
# [22] = Cytotoxicity against human peripheral blood lymphocytes assessed as assessed as CD19+ B cells population at 5 uM after 5 days by flow cytometry analysis (reference value: 2%); type: cell-based; details: lymphocyte, 120 h
# [23] = Cytotoxicity against human peripheral blood lymphocytes assessed as assessed as CD3+/CD4+ T cells population at 30 uM after 5 days by flow cytometry analysis (reference value: 41.4%); type: cell-based; details: lymphocyte, 120 h
# [24] = Cytotoxicity against human peripheral blood lymphocytes assessed as assessed as CD19+ B cells population at 50 uM after 5 days by flow cytometry analysis (reference value: 2%); type: cell-based; details: lymphocyte, 120 h
# [25] = Cytotoxicity against human peripheral blood lymphocytes assessed as assessed as CD3+ T cells population at 1 uM after 5 days by flow cytometry analysis (reference value: 73.8%); type: cell-based; details: lymphocyte, 120 h
# [26] = Cytotoxicity against human peripheral blood lymphocytes assessed as assessed as CD4+/CD8+ […] ratio at 50 uM after 5 days by flow cytometry analysis (reference value: 2.7%); type: cell-based; details: lymphocyte, 120 h
# [27] = Cytotoxicity against human peripheral blood lymphocytes assessed as assessed as CD19+ B cells population at 1 uM after 5 days by flow cytometry analysis (reference value: 2%); type: cell-based; details: lymphocyte, 120 h
# [28] = Cytotoxicity against human peripheral blood lymphocytes assessed as assessed as CD19+ B cells population at 30 uM after 5 days by flow cytometry analysis (reference value: 2%); type: cell-based; details: lymphocyte, 120 h
# [29] = Cytotoxicity against human peripheral blood lymphocytes assessed as assessed as CD3+/CD8 T cells population at 30 uM after 5 days by flow cytometry analysis (reference value: 15.2 %); type: cell-based; details: lymphocyte, 120 h
# [30] = Plasma concentration in Sprague-Dawley rat at 2.3 mg/kg, sc measured at 3 hrs by LC/MS/MS analysis; type: ADME, organism-based; set-up: dose 2.3 mg/kg, route subcutaneous
# [31] = Cytotoxicity against human peripheral blood lymphocytes assessed as assessed as CD3+/CD4+ T cells population at 1 uM after 5 days by flow cytometry analysis (reference value: 41.4%); type: cell-based; details: lymphocyte, 120 h
# [32] = Cytotoxicity against human peripheral blood lymphocytes assessed as assessed as CD3+/CD4+ T cells population at 0.1 uM after 5 days by flow cytometry analysis (reference value: 41.4%); type: cell-based; details: lymphocyte, 120 h
# [33] = test system: HL-60; experiment: Antiproliferative activity against human HL-60 cells assessed as reduction in cell growth after 24 hrs by MTS assay; type: functional, cell-based; details: HL-60, 24 h
# [34] = Cytotoxicity against human peripheral blood lymphocytes assessed as assessed as CD4+/CD8+ […] ratio at 30 uM after 5 days by flow cytometry analysis (reference value: 2.7%); type: cell-based; details: lymphocyte, 120 h
# [35] = Cytotoxicity against human peripheral blood lymphocytes assessed as assessed as CD3+/CD4+ T cells population at 50 uM after 5 days by flow cytometry analysis (reference value: 41.4%); type: cell-based; details: lymphocyte, 120 h
# [36] = Cytotoxicity against human peripheral blood lymphocytes assessed as assessed as CD3+/CD8 T cells population at 5 uM after 5 days by flow cytometry analysis (reference value: 15.2 %); type: cell-based; details: lymphocyte, 120 h
# [37] = Cytotoxicity against human peripheral blood lymphocytes assessed as assessed as CD3+/CD4+ T cells population at 10 uM after 5 days by flow cytometry analysis (reference value: 41.4 %); type: cell-based; details: lymphocyte, 120 h
# [38] = Cytotoxicity against human peripheral blood lymphocytes assessed as assessed as CD19+ B cells population at 0.1 uM after 5 days by flow cytometry analysis (reference value: 2%); type: cell-based; details: lymphocyte, 120 h
# [39] = Cytotoxicity against human peripheral blood lymphocytes assessed as assessed as CD4+/CD8+ […] ratio at 5 uM after 5 days by flow cytometry analysis (reference value: 2.7%); type: cell-based; details: lymphocyte, 120 h
# Chain of Cytochrome P450 3A4 (P08684 whole entry): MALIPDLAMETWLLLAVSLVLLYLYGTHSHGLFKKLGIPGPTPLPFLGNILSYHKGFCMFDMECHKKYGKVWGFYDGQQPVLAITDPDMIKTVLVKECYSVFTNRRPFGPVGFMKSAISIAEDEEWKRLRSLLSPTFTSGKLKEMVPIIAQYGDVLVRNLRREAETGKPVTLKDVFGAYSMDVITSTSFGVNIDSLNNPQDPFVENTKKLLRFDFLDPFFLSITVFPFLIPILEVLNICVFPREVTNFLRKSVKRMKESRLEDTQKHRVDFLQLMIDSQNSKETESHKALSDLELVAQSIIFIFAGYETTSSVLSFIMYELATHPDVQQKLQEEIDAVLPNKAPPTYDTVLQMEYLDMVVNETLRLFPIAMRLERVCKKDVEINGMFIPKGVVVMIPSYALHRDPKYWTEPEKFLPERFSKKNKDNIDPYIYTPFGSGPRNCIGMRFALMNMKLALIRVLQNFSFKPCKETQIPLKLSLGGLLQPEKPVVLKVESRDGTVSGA
# Chain of Cytochrome P450 2D6 (P10635 whole entry): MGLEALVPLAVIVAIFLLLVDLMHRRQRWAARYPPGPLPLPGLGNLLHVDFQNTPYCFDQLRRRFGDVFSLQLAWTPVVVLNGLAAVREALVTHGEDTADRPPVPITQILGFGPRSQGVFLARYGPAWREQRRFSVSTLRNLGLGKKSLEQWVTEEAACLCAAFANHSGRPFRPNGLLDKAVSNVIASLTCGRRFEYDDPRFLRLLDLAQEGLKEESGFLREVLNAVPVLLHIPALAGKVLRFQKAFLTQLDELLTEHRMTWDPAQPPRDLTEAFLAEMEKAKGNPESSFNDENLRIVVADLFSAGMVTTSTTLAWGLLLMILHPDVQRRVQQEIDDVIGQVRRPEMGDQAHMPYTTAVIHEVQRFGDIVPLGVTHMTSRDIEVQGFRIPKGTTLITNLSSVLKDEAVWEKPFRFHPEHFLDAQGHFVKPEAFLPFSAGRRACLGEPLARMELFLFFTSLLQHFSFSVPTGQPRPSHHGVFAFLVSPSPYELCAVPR
smiles,measurement,setting,value
C#C[C@]1(O)CC[C@H]2[C@@H]3CC[C@H]4C[C@H](O)[C@@H](N5CCN(C(=O)[C@@H]6CCCN6C(=O)c6ccc7ccccc7n6)CC5)C[C@]4(C)[C@H]3CC[C@@]21C,Activity,[1],59.1%
same,Activity,[2],55.1%
same,IC50,[3],25 µM
same,Activity,[4],11.3%
same,Activity,[5],58.5%
same,Activity,[6],1.4%
same,Activity,[7],57.5%
same,Activity,[8],5%
same,IC50,[9],0.1 µM
same,Activity,[10],62.1%
same,concentration at 12 h,[11],15.7 ng/mL
same,IC50,[12],0.1 µM
same,IC50,[13],2 µM
same,Activity,[14],12.1%
same,Activity,[15],1.4%
same,Activity,[16],1.6%
same,Activity,[17],19.5%
same,Activity,[18],3.3%
same,IC50,[19],1.1 µM
same,IC50,[20],3.8 µM
same,Activity,[21],0.1%
same,Activity,[22],1.7%
same,Activity,[23],21%
same,Activity,[24],1.8%
same,Activity,[25],53.7%
same,Activity,[26],231%
same,Activity,[27],2.2%
same,Activity,[28],1.9%
same,Activity,[29],0.1%
same,concentration at 3 h,[30],151 ng/mL
same,Activity,[31],16.6%
same,Activity,[32],16.9%
same,IC50,[33],0.1 µM
same,Activity,[34],216%
same,Activity,[35],23.1%
same,Activity,[36],3.3%
same,Activity,[37],18.4%
same,Activity,[38],1.1%
same,Activity,[39],6%

# — ChEMBL document CHEMBL3351452, “Chemical synthesis, cytotoxicity, selectivity and bioavailability of 5α-androstane-3α,17β-diol derivatives” (Bioorg Med Chem, 2014)
